Patent publication US10154990B2, “Medicaments for the treatment or prevention of fibrotic diseases” (Boehringer Ingelheim International GmbH, priority 2004, dated 2018)

Key:
[1] = test system: Bleomycin-induced Pulmonary Fibrosis; test: Lung morphology following bleomycin-induced pulmonary fibrosis (histology, Masson's Trichrome); type: in vivo, Male Wistar rats; details: bleomycin-treated rats (10 U/kg intratracheal), daily oral treatment with 50 mg/kg, days 1-21, lungs removed 21 days after instillation
Description: (A) Effect of a Representative Compound on Lung Morphology Following Bleomycin-induced Pulmonary Fibrosis. Bleomycin sulfate (Bleomycin […]) was purchased from a local pharmacy. All experiments were performed in accordance with German guidelines for animal welfare, performed by persons certified to work with animals and approved by the responsible authorities. Male Wistar rats were intratracheally injected with Bleomycin sulfate (10U/kg body weight in 300 μl saline) or saline alone (saline control) using a catheter (0.5 mm internal diameter, 1.0 mm external diameter) through the nasal passage, following exposure to the anaesthetic Isofluorane for 5 minutes. The following day, the rats were orally treated with Example A (compound (m)) or saline suspended in 1 ml 0.1% Natrosol. Control rats were administered 1 ml 0.1% Natrosol (vehicle control). [table] 21 days following bleomycin instillation, the rats were killed with a lethal intraperitoneal injection of NarcorenTM (Pentobarbital Sodium, Rhone Merieux). The lungs were then removed, blotted dry and half was snap frozen in liquid nitrogen and stored at -80° C. The other half was fixed in 4% formalin for subsequent paraffin embedding and histology. […] Collagen deposition was assessed using Masson's Trichrome staining. […]

fibrotic marker genes = test: Expression of fibrotic marker genes in lung following bleomycin-induced pulmonary fibrosis (real time PCR); type: in vivo, Male Wistar rats; details: bleomycin-treated rats, daily 50 mg/kg, days 1-21, real time PCR normalized to 18S
Description: (B) Effect of a Representative Compound on Expression of Fibrotic Marker Genes Following Bleomycin-induced Pulmonary Fibrosis.
One part of the frozen lung tissue dedicated to investigation of gene expression was cut into small pieces using a sterile scalpel blade. Approximately 100 mg of tissue was then placed into a 2 ml Eppendorf tube and 1.5 ml of Trizol (Invitrogen) was added. A sterile tungsten carbide bead (Qiagen) was then added to the tube and the tube was placed in a Retsch MM300 Tissue disruptor (Qiagen) at a frequency of 30.0 Hz for 8 minutes. After this time, the bead was removed and the sample centrifuged at 12000 rpm for 10 minutes to remove tissue debris. The RNA was extracted using a modified version of the manufacturer's protocol supplied with Trizol. […] The concentration of each sample was then measured using a spectrophotometer. […]
Real Time PCR was carried out in 25 μl reactions, using 25 ng (5 μl) of cDNA per reaction. A quantitative PCR core kit was purchased (Eurogentec) and a master-mix was made up as follows for 100 reactions: 500 μl 10× reaction buffer, 500 μl MgCl2 (50 mM), 200 μl dNTP mix solution (5 mM), 25 μl Hot Goldstar enzyme, 75 μl 18S PDAR, 22.5 μl forward primer, 22.5 μl reverse primer, 15 μl probe and […] DEPC treated water. […]
In order to quantify the gene expression, a standard curve was constructed for each primer set and was included on each plate. […]

Row | Structure (SMILES) | lung fibrosis (lung morphology, collagen deposition by Masson's Trichrome staining) [1] | expression of fibrotic marker genes (procollagen I, fibronectin) in the lung (fibrotic marker genes; FIGS. 2 and 3, vs bleomycin + vehicle) | expression of fibrotic marker genes (procollagen I, TGFb) in the lung (fibrotic marker genes; FIGS. 5 and 6, vs bleomycin + vehicle)
1 | COC(=O)c1ccc2c(c1)NC(=O)/C2=C(\Nc1ccc(N(C)C(=O)CN(C)C)cc1)c1ccccc1 [Compound (m), 3-Z-[1-(4-(N-dimethylaminomethylcarbonyl-N-methyl-amino)-anilino)-1-phenyl-methylene]-6-methoxycarbonyl-indolinone] | consistent, nearly complete reversal of lung fibrosis | significant (p≤0.0001) inhibition | –
2 | COC(=O)c1ccc2c(c1)NC(=O)/C2=C(\Nc1ccc(N(C)C(=O)CN2CCN(C)CC2)cc1)c1ccccc1 [Compound (u), 3-Z-[1-(4-(N-((4-methyl-piperazin-1-yl)-methylcarbonyl)-N-methyl-amino)-anilino)-1-phenyl-methylene]-6-methoxycarbonyl-2-indolinone] | consistent, nearly complete reversal of lung fibrosis | – | significant (p≤0.0001) inhibition
